Data taken from ChEMBL document CHEMBL1155123, “Synthesis and discovery of autophagy inducers for A549 and H460 lung cancer cells, novel 1-(2'-hydroxy-3'-aroxypropyl)-3-aryl-1H-pyrazole-5-carbohydrazide derivatives” (Bioorg Med Chem Lett, 2008).
Activity calls are given as the source filed them. The rule behind the calls is not given here.

Columns and labels:
[1] = tested on: A549; assay: Growth inhibition of human A549 cells after 48 hrs by MTT assay; format: functional, cell-based; details: A549, 48 h
[2] = tested on: A549; assay: Growth inhibition of human A549 cells after 96 hrs by MTT assay; format: functional, cell-based; details: A549, 96 h
[3] = tested on: A549; assay: Induction of apoptosis in human A549 cells assessed as nuclear and acidic compartment morphology at 80 uM; format: functional, cell-based
[4] = tested on: NCI-H460; assay: Induction of apoptosis in human H460 cells assessed as nuclear and acidic compartment morphology at 80 uM; format: functional, cell-based
[5] = tested on: A549; assay: Induction of autophagy in human A549 cells assessed as nuclear and acidic compartment morphology at 10 to 80 uM after 24 hrs; format: functional, cell-based
[6] = tested on: A549; assay: Induction of autophagy in human A549 cells assessed as nuclear and acidic compartment morphology at 80 uM after 48 hrs; format: functional, cell-based
[7] = tested on: NCI-H460; assay: Induction of autophagy in human H460 cells assessed as nuclear and acidic compartment morphology at 80 uM after 24 hrs; format: functional, cell-based
[8] = tested on: NCI-H460; assay: Induction of autophagy in human H460 cells assessed as nuclear and acidic compartment morphology at 80 uM after 48 hrs; format: functional, cell-based
[9] = tested on: A549; assay: Induction of necrosis in human A549 cells assessed as LDH release at 80 uM after 24 hrs; format: functional, cell-based
[10] = tested on: NCI-H460; assay: Induction of necrosis in human H460 cells assessed as LDH release at 80 uM after 24 hrs; format: functional, cell-based
[11] = tested on: A549; assay: Induction of necrosis in human A549 cells assessed as LDH release at 80 uM after 48 hrs; format: functional, cell-based
[12] = tested on: NCI-H460; assay: Induction of necrosis in human H460 cells assessed as LDH release at 80 uM after 48 hrs; format: functional, cell-based
[13] = tested on: A549; assay: Antiproliferative activity against human A549 cells assessed as cell viability at 80 uM after 96 hrs by MTT assay; format: functional; details: A549, 96 h, read-out: Activity
[14] = tested on: A549; assay: Antiproliferative activity against human A549 cells assessed as cell viability at 40 uM after 24 hrs by MTT assay; format: functional; details: A549, 24 h, read-out: Activity
[15] = tested on: A549; assay: Antiproliferative activity against human A549 cells assessed as cell viability at 40 uM after 48 hrs by MTT assay relative to control; format: functional; details: A549, 48 h, read-out: Activity
[16] = tested on: A549; assay: Antiproliferative activity against human A549 cells assessed as cell viability at 80 uM after 48 hrs by MTT assay; format: functional; details: A549, 48 h, read-out: Activity
[17] = tested on: HUVEC; assay: Antiproliferative activity against HUVEC assessed as cell viability after 24 hrs by MTT assay; format: cell-based; details: human
[18] = tested on: HUVEC; assay: Antiproliferative activity against HUVEC assessed as cell viability after 48 hrs by MTT assay; format: cell-based; details: human
[19] = tested on: A549; assay: Effect on morphological changes in human A549 cells at 10 to 80 uM after 24 hrs; format: functional, cell-based
[20] = tested on: A549; assay: Effect on morphological changes in human A549 cells at 10 to 80 uM after 48 hrs; format: functional, cell-based
[21] = tested on: HUVEC; assay: Induction of HUVEC growth at 10 uM after 24 hrs by MTT assay; format: functional, cell-based; details: Homo sapiens

| SMILES | IC50 [1] [µM] | IC50 [2] [µM] | Activity [3] | Activity [4] | Activity [5] | Activity [6] | Activity [7] | Activity [8] | Activity [9] | Activity [10] | Activity [11] | Activity [12] | viability at 80 µM [13] [%] | viability at 40 µM [14] [%] | viability at 40 µM [15] [%] | viability at 80 µM [16] [%] | other results |
| --- | --- | --- | --- | --- | --- | --- | --- | --- | --- | --- | --- | --- | --- | --- | --- | --- | --- |
| NNC(=O)c1cc(-c2ccccc2)nn1CC(O)COc1ccc([N+](=O)[O-])cc1 (centres undefined) | 72 | 45 | inactive | inactive | Active | Active | Active | Active | inactive | inactive | inactive | inactive | – | – | – | – | – |
| NNC(=O)c1cc(-c2ccc(Cl)cc2)nn1CC(O)COc1ccc([N+](=O)[O-])cc1 (centres undefined) | 39 | 37 | inactive | inactive | Active | Active | Active | Active | inactive | inactive | inactive | inactive | 6 | 72 | 56 | 29 | – |
| NNC(=O)c1cc(-c2ccccc2)nn1CC(O)COc1ccc(Cl)cc1 (centres undefined) | 48 | 30 | inactive | inactive | Active | Active | Active | Active | inactive | inactive | inactive | inactive | 6 | 72 | 56 | 29 | Activity [17]: Not Active; Activity [18]: Not Active; Activity [19]: Active; Activity [20]: Active |
| COc1ccccc1OCC(O)Cn1nc(-c2ccc(Cl)cc2)cc1C(=O)NN (centres undefined) | 74 | 40 | inactive | inactive | Active | Active | Active | Active | inactive | inactive | inactive | inactive | – | – | – | – | – |
| COc1ccccc1OCC(O)Cn1nc(-c2ccccc2)cc1C(=O)NN (centres undefined) | 72 | 49 | inactive | inactive | Active | Active | Active | Active | inactive | inactive | inactive | inactive | – | – | – | – | – |
| COc1ccc(-c2cc(C(=O)NN)n(CC(O)COc3ccccc3OC)n2)cc1 (centres undefined) | 70 | 51 | inactive | inactive | Active | Active | Active | Active | inactive | inactive | inactive | inactive | – | – | – | – | – |
| NNC(=O)c1cc(-c2ccc(Cl)cc2)nn1CC(O)COc1ccc(Cl)cc1 (centres undefined) | 32 | 27 | inactive | inactive | Active | Active | Active | Active | inactive | inactive | inactive | inactive | 6 | 72 | 56 | 29 | Activity [17]: Not Active; Activity [18]: Not Active; Activity [21]: Active; Activity [19]: Active; Activity [20]: Active |
| COc1ccc(-c2cc(C(=O)NN)n(CC(O)COc3ccc(Cl)cc3)n2)cc1 (centres undefined) | 39 | 35 | inactive | inactive | Active | Active | Active | Active | inactive | inactive | inactive | inactive | – | 62 | 40 | – | – |
